Data from ChEMBL document CHEMBL5046248, “New Pqs Quorum Sensing System Inhibitor as an Antibacterial Synergist against Multidrug-Resistant Pseudomonas aeruginosa” (J Med Chem, 2022).
Values after ≈ are worked out from the molar mass of the structure shown. Active and inactive are the calls of the source. The rule behind the calls is not given here.

Key:
Pseudomonas aeruginosa [1] = experiment: Antibiofilm activity against Pseudomonas aeruginosa PAO1 assessed as effect on pyochelin production fluorescence at 1.25 to 20 uM by fluorescence assay; type: functional, organism-based; conditions: dose 1.25-20 µM
Pseudomonas aeruginosa [2] = experiment: Antibacterial activity against Pseudomonas aeruginosa PAO1 assessed as inhibition of biofilm formation for 24 hrs by crystal violet staining based assay; type: functional, organism-based; conditions: PAO1, 24 h
Pseudomonas aeruginosa [3] = experiment: In vivo antibacterial activity against Pseudomonas aeruginosa PAO1-gfp infected in tail injured zebrafish model assessed as increase in survival of zebrafish at 10 to 20 uM measured upto 50 hrs of post fertilization; type: functional, organism-based; conditions: dose 10-20 µM, time hrs <=50
Pseudomonas aeruginosa [4] = experiment: Synergistic antibacterial activity against multidrug-resistant Pseudomonas aeruginosa 1167 assessed as reduction in bacterial viability after 12 hrs in presence of colistin E; type: functional, organism-based
H9c2 [5] = experiment: Cytotoxicity against rat H9c2 cells assessed as reduction in cell viability at up to 25 uM incubated for 24 hrs by MTT assay; type: toxicity, cell-based; conditions: h9c2, 24 h
Pseudomonas aeruginosa [6] = experiment: Synergistic antibacterial activity against multidrug-resistant Pseudomonas aeruginosa 1121 assessed as reduction in bacterial viability after 12 hrs in presence of colistin E; type: functional, organism-based
Pseudomonas aeruginosa [7] = experiment: Inhibition of quorum sensing system in Pseudomonas aeruginosa PAO1 assessed as reduction of pyocyanin expression in flask at 1.25 to 20 uM for 24 hrs; conditions: dose 1.25-20 µM
Pseudomonas aeruginosa [8] = experiment: Inhibition of quorum sensing system in Pseudomonas aeruginosa PAO1 assessed as decrease of pyocyanin production at 1.25 to 20 uM for 24 hrs; conditions: dose 1.25-20 µM
Pseudomonas aeruginosa [9] = experiment: Antibiofilm activity against Pseudomonas aeruginosa PAO1 assessed as increase in pyoverdine production at 40 uM by fluorescence assay; type: functional, organism-based
Pseudomonas aeruginosa [10] = experiment: Antibiofilm activity against Pseudomonas aeruginosa PAO1 assessed as inhibition of swarming motility for 16 hrs by motility assay; type: functional, organism-based; conditions: dose 1.25-20 µM
Pseudomonas aeruginosa [11] = experiment: Antibacterial activity against Pseudomonas aeruginosa PAO1 infected rat H9c2 cells assessed as reduction in virulence mediated cytotoxicity by measuring cell survival rate at 20 uM by MTT assay (reference value: 36%); type: functional
Pseudomonas aeruginosa [12] = experiment: Inhibition of beta-galactosidase expression in Pseudomonas aeruginosa PAO1-mini-[…]-lacZ strain at 1.25 to 20 uM; type: functional; conditions: dose 1.25-20 µM
Pseudomonas aeruginosa [13] = experiment: Antibiofilm activity against Pseudomonas aeruginosa PAO1 assessed as inhibition of twitching motility for 16 hrs by motility assay; type: functional, organism-based; conditions: dose 1.25-20 µM
Pseudomonas aeruginosa [14] = experiment: Inhibition of rhamnolipid expression in Pseudomonas aeruginosa PAO1-mini-[…]-rhlA-lacZ strain assessed as decrease in beta-galactosidase at 1.25 to 20 uM; type: functional; conditions: PAO1-mini-ctx-[…]-lacZ, dose 1.25-20 µM
Pseudomonas aeruginosa [15] = experiment: Synergistic antibacterial activity against multidrug-resistant Pseudomonas aeruginosa 1129 assessed as reduction in bacterial viability after 12 hrs in presence of tobramycin; type: functional, organism-based
Pseudomonas aeruginosa [16] = experiment: Synergistic antibacterial activity against multidrug-resistant Pseudomonas aeruginosa 1121 assessed as reduction in bacterial viability after 12 hrs in presence of 1/2 MIC of ciprofloxacin; type: functional, organism-based
Pseudomonas aeruginosa [17] = experiment: Synergistic antibacterial activity against multidrug-resistant Pseudomonas aeruginosa 1167 assessed as reduction in bacterial viability after 12 hrs in presence of 1/2 MIC of ciprofloxacin; type: functional, organism-based
Pseudomonas aeruginosa [18] = experiment: Synergistic antibacterial activity against Pseudomonas aeruginosa PAO1 assessed as reduction in bacterial viability after 12 hrs in presence of colistin E; type: functional, organism-based
Pseudomonas aeruginosa [19] = experiment: In vivo antibacterial activity against Pseudomonas aeruginosa PAO1-gfp infected in tail injured zebrafish model assessed as reduction in mortality at 10 to 20 uM measured upto 50 hrs of post fertilization; type: functional, organism-based; conditions: dose 10-20 µM, time hrs <=50
Pseudomonas aeruginosa [20] = experiment: Inhibition of quorum sensing system in Pseudomonas aeruginosa PAO1 assessed as effect on elastase production for 24 hrs; conditions: dose 1.25-20 µM
H9c2 [21] = experiment: Cytotoxicity against rat H9c2 cells assessed as reduction in cell viability at 50 uM incubated for 24 hrs by MTT assay; type: toxicity, cell-based; conditions: h9c2, 24 h
Pseudomonas aeruginosa [22] = experiment: Antibiofilm activity against Pseudomonas aeruginosa PAO1 assessed as suppression of biofilm formation for 24 hrs by fluorescent dye SYTO9 and propidium iodide staining based confocal laser microscopic analysis; type: functional, organism-based; conditions: dose 0.625-10 µM
Pseudomonas aeruginosa [23] = experiment: Synergistic antibacterial activity against multidrug-resistant Pseudomonas aeruginosa 1129 assessed as reduction in bacterial viability after 12 hrs in presence of colistin E; type: functional, organism-based
Pseudomonas aeruginosa [24] = experiment: Inhibition of pyocyanin expression in Pseudomonas aeruginosa PAO1-mini-[…]-pqsA-lacZ strain assessed as decrease in beta-galactosidase at 1.25 to 20 uM; type: functional; conditions: PAO1-mini-ctx-pqsA-lacZ, dose 1.25-20 µM
Pseudomonas aeruginosa [25] = experiment: Synergistic antibacterial activity against multidrug-resistant Pseudomonas aeruginosa FB assessed as reduction in bacterial viability after 12 hrs in presence of tobramycin; type: functional, organism-based
Pseudomonas aeruginosa [26] = experiment: In vivo antibacterial activity against Pseudomonas aeruginosa PAO1-gfp infected in tail injured zebrafish model assessed as reduction in bacterial burden at 20 uM measured after 24 hrs of post infection; type: functional, organism-based
Pseudomonas aeruginosa [27] = experiment: Synergistic antibacterial activity against Pseudomonas aeruginosa PAO1 assessed as reduction in bacterial viability after 12 hrs in presence of tobramycin; type: functional, organism-based
Pseudomonas aeruginosa [28] = experiment: Synergistic antibacterial activity against multidrug-resistant Pseudomonas aeruginosa 1129 assessed as reduction in bacterial viability after 12 hrs in presence of 1/2 MIC of ciprofloxacin; type: functional, organism-based
Pseudomonas aeruginosa [29] = experiment: Antibacterial activity against Pseudomonas aeruginosa PAO1 infected rat H9c2 cells assessed as reduction in virulence mediated cytotoxicity by measuring increase in cell viability by MTT assay; type: functional, organism-based; conditions: dose 1.25-20 µM
Pseudomonas aeruginosa [30] = experiment: Inhibition of quorum sensing system in Pseudomonas aeruginosa PAO1 assessed as effect on rhamnolipid production at 1.25 to 20 uM for 24 hrs; conditions: dose 1.25-20 µM
Pseudomonas aeruginosa [31] = experiment: Synergistic antibacterial activity against multidrug-resistant Pseudomonas aeruginosa FB assessed as reduction in bacterial viability after 12 hrs in presence of 1/2 MIC of ciprofloxacin; type: functional, organism-based
Pseudomonas aeruginosa [32] = experiment: Synergistic antibacterial activity against Pseudomonas aeruginosa PAO1 assessed as reduction in bacterial viability after 12 hrs in presence of 1/2 MIC of ciprofloxacin; type: functional, organism-based
Pseudomonas aeruginosa [33] = experiment: Antibiofilm activity against Pseudomonas aeruginosa PAO1 assessed as inhibition rate at 0.625 uM for 24 hrs by crystal violet staining based assay relative to control; type: functional
Pseudomonas aeruginosa [34] = experiment: Inhibition of elastase expression in Pseudomonas aeruginosa PAO1-mini-[…]-lasB-lacZ strain assessed as decrease in beta-galactosidase at 1.25 to 20 uM; type: functional; conditions: PAO1-mini-[…]-lasB-[…], dose 1.25-20 µM
Pseudomonas aeruginosa [35] = experiment: Antibiofilm activity against Pseudomonas aeruginosa PAO1 assessed as inhibition of swimming motility for 16 hrs by motility assay; type: functional, organism-based; conditions: dose 1.25-20 µM
Pseudomonas aeruginosa [36] = experiment: Synergistic antibacterial activity against multidrug-resistant Pseudomonas aeruginosa FB assessed as reduction in bacterial viability after 12 hrs in presence of colistin E; type: functional, organism-based
Pseudomonas aeruginosa [37] = experiment: Antibacterial activity against Pseudomonas aeruginosa 1129 assessed as bacterial growth inhibition by broth microdilution method; type: functional
Pseudomonas aeruginosa [38] = experiment: Antibacterial activity against Pseudomonas aeruginosa 1121 assessed as bacterial growth inhibition by broth microdilution method; type: functional
Pseudomonas aeruginosa [39] = experiment: Antibacterial activity against Pseudomonas aeruginosa 1167 assessed as bacterial growth inhibition by broth microdilution method; type: functional
Pseudomonas aeruginosa [40] = experiment: Antibacterial activity against Pseudomonas aeruginosa FB assessed as bacterial growth inhibition by broth microdilution method; type: functional
Pseudomonas aeruginosa [41] = experiment: Antibacterial activity against Pseudomonas aeruginosa PAO1 assessed as bacterial growth inhibition by broth microdilution method; type: functional

Cc1c(O)c(=O)ccn1C
Activity (Pseudomonas aeruginosa [1]): inactive

COCCn1c(C)cc(=O)c(O)c1CNC(=O)c1ccc(OC)cc1
IC50 (Pseudomonas aeruginosa [2]): > 100 µM

CCn1c(C)cc(=O)c(O)c1CNC(=O)c1ccc(OC)cc1
IC50 (Pseudomonas aeruginosa [2]): > 100 µM

CCn1c(C)cc(=O)c(O)c1CNc1ccc(OC)cc1
IC50 (Pseudomonas aeruginosa [2]): > 100 µM

CCCn1c(C)cc(=O)c(O)c1CNC(=O)c1ccc(C(F)(F)F)cc1
IC50 (Pseudomonas aeruginosa [2]): > 100 µM

CCn1c(C)cc(=O)c(O)c1CNS(=O)(=O)c1ccc(OC)cc1
IC50 (Pseudomonas aeruginosa [2]): > 100 µM

CCCCn1c(C)cc(=O)c(O)c1CNC(=O)c1ccc(OC)cc1
Activity (Pseudomonas aeruginosa [3]): Active
Activity (Pseudomonas aeruginosa [4]): Dose-Dependent Effect
Activity (H9c2 [5]): Non-Toxic
Activity (Pseudomonas aeruginosa [6]): Dose-Dependent Effect
Activity (Pseudomonas aeruginosa [7]): Active
Activity (Pseudomonas aeruginosa [8]): Dose-Dependent Effect
Activity (Pseudomonas aeruginosa [9]): Active
Activity (Pseudomonas aeruginosa [10]): Dose-Dependent Effect
Activity (Pseudomonas aeruginosa [11]): 79%
Activity (Pseudomonas aeruginosa [12]): inactive
Activity (Pseudomonas aeruginosa [13]): Dose-Dependent Effect
Activity (Pseudomonas aeruginosa [14]): inactive
Activity (Pseudomonas aeruginosa [15]): Dose-Dependent Effect
Activity (Pseudomonas aeruginosa [16]): Dose-Dependent Effect
IC50 (Pseudomonas aeruginosa [2]): 4.5 µM
Activity (Pseudomonas aeruginosa [17]): Dose-Dependent Effect
Activity (Pseudomonas aeruginosa [18]): Dose-Dependent Effect
Activity (Pseudomonas aeruginosa [19]): Active
Activity (Pseudomonas aeruginosa [20]): inactive
Activity (H9c2 [21]): Toxic
Activity (Pseudomonas aeruginosa [22]): Dose-Dependent Effect
Activity (Pseudomonas aeruginosa [23]): Dose-Dependent Effect
Activity (Pseudomonas aeruginosa [24]): Dose-Dependent Effect
Activity (Pseudomonas aeruginosa [25]): Dose-Dependent Effect
Activity (Pseudomonas aeruginosa [26]): Active
Activity (Pseudomonas aeruginosa [27]): Dose-Dependent Effect
Activity (Pseudomonas aeruginosa [1]): inactive
Activity (Pseudomonas aeruginosa [28]): Dose-Dependent Effect
Activity (Pseudomonas aeruginosa [29]): Dose-Dependent Effect
Activity (Pseudomonas aeruginosa [30]): inactive
Activity (Pseudomonas aeruginosa [31]): Dose-Dependent Effect
Activity (Pseudomonas aeruginosa [32]): Dose-Dependent Effect
inhibition at 0.625 µM (Pseudomonas aeruginosa [33]): > 28%
Activity (Pseudomonas aeruginosa [34]): inactive
Activity (Pseudomonas aeruginosa [35]): Dose-Dependent Effect
Activity (Pseudomonas aeruginosa [36]): Dose-Dependent Effect

CCCCCn1c(C)cc(=O)c(O)c1CNC(=O)c1ccc(OC)cc1
IC50 (Pseudomonas aeruginosa [2]): 52.5 µM

CCn1c(C)cc(=O)c(O)c1CNC1CCCC1
IC50 (Pseudomonas aeruginosa [2]): > 100 µM

O=C(Cc1ccc(F)cc1)NCc1cc(=O)c(O)cn1O
IC50 (Pseudomonas aeruginosa [2]): > 100 µM

COc1ccc(C(=O)NCc2cc(=O)c(O)cn2O)cc1
IC50 (Pseudomonas aeruginosa [2]): > 100 µM

CCCCn1c(C)cc(=O)c(O)c1CNC(=O)c1ccccc1OC
IC50 (Pseudomonas aeruginosa [2]): 28.5 µM

CCCn1c(C)cc(=O)c(O)c1CNS(=O)(=O)c1ccc(OC)cc1
IC50 (Pseudomonas aeruginosa [2]): 59.6 µM

CCCCCC(=O)NCc1c(O)c(=O)cc(C)n1CCC
IC50 (Pseudomonas aeruginosa [2]): > 100 µM

Cn1cc(O)c(=O)cc1CNC(=O)Cc1ccc(F)cc1
IC50 (Pseudomonas aeruginosa [2]): > 100 µM

CCCCCC(=O)NCc1cc(=O)c(O)cn1O
IC50 (Pseudomonas aeruginosa [2]): > 100 µM

CCCCCCC(=O)NCc1c(O)c(=O)cc(C)n1CCC
IC50 (Pseudomonas aeruginosa [2]): > 100 µM

CCCCn1c(C)cc(=O)c(O)c1CNC(=O)c1cccc(OC)c1
IC50 (Pseudomonas aeruginosa [2]): 31.1 µM

CCCn1c(C)cc(=O)c(O)c1CNC(=O)c1ccccc1OC
IC50 (Pseudomonas aeruginosa [2]): 62.9 µM

CCCCn1c(C)cc(=O)c(O)c1CNS(=O)(=O)c1ccc(OC)cc1
IC50 (Pseudomonas aeruginosa [2]): 40.4 µM

CCCCCC(=O)NCc1cc(=O)c(O)cn1C
IC50 (Pseudomonas aeruginosa [2]): > 100 µM

NC[C@H]1O[C@H](O[C@H]2[C@H](O)[C@@H](O[C@H]3O[C@H](CO)[C@@H](O)[C@H](N)[C@H]3O)[C@H](N)C[C@@H]2N)[C@H](N)C[C@@H]1O [TOBRAMYCIN]
MIC (Pseudomonas aeruginosa [37]): 10 µg/mL (≈ 21.4 µM)
MIC (Pseudomonas aeruginosa [38]): 10 µg/mL (≈ 21.4 µM)
MIC (Pseudomonas aeruginosa [39]): 10 µg/mL (≈ 21.4 µM)
MIC (Pseudomonas aeruginosa [40]): 10 µg/mL (≈ 21.4 µM)
MIC (Pseudomonas aeruginosa [41]): 5 µg/mL (≈ 10.7 µM)
